Measured values taken from patent US20260008768A1, “UREA DERIVATIVES FOR INHIBITING NLRP3 AND USES THEREOF” (VENTUS THERAPEUTICS U.S., INC., priority 2023, published 2026).

Columns and labels:
human NLRP3 [1] = target: T1, human NLRP3 (Homo sapiens, UniProt Q96P20); assay: Human Whole Blood (hWB) NLRP3 Assay (LPS/ATP, IL-1β); type: cell-based; set-up: host or cells: human whole blood from healthy volunteers (A3)
Experimental: Human whole blood is drawn from healthy volunteers after obtaining written informed consent. Heparin lithium coated tubes are used to collect blood from volunteers. Blood samples are distributed on 96 well plates using 90 μl per well.
Priming procedure: Priming is performed by adding 5 μl of LPS (O26:B6; Sigma L-2654) at a final concentration of 1 μg/ml for 4.5 hours in a humidified incubator with 37° C., 5% CO2. Thirty minutes prior to NLRP3 activation, 5 μl of a 20× compound solution or vehicle (2% dimethylsulfoxide (DMSO)) is added to each well and plates were incubated on a shaker (450 rpm) in a humidified incubator with 37° C., 5% CO2.
Alternative priming procedure: Thirty minutes prior to LPS priming, 5 μl of a 20× compound solution or vehicle (2% dimethylsulfoxide (DMSO)) is added to each well and plates were incubated on a shaker (450 rpm) in a humidified incubator with 37° C., 5% CO2. Priming is performed by adding 5 μl of LPS (O26:B6; Sigma L-2654) at a final concentration of 1 μg/ml for 5 hours in a humidified incubator with 37° C., 5% CO2.
Activation is then performed by adding 3.3 μl of a 31×ATP solution per well. At the end of the 30 minutes stimulation, the plates are centrifuged (800 g, 10 min, room temperature) and the plasma from each well is frozen at −80° C. IL-1β levels in the supernatant were analyzed using a mesoscale discovery assay (MSD K151TUK) according to the manufacturers' instructions.
There is no detectable difference in assay results using the priming procedure versus the alternative priming procedure.
hWB NLRP3 IC50 assay results, as a measurement of whole blood potency, are provided in Table B. “A” activity=<1 uM; “B” activity=1-2 uM; “C” activity=>2-3 uM; “D” activity=>3 uM.

human NLRP3 [2] = target: T1, human NLRP3; assay: Human PBMC NLRP3 Assay (LPS priming, ATP stimulation, cytokine measurement); type: cell-based; set-up: host or cells: human PBMCs (A2); human whole blood from healthy volunteers (A3); settings: human PBMC, LPS + ATP
In short: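 Human PBMCs (5×10^4/well) primed with 100 ng/ml LPS for 4 h, then given compound for 30 min and stimulated with 5 mM ATP for 1 h at 37° C. Supernatant cytokines measured on the Mesoscale platform to give IC50. For TNFα selectivity, compound was added 30 min before LPS priming.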

human NLRP3 [3] = target: T1, human NLRP3; assay: Scintillation Proximity (SPA) NLRP3 Assay, displacement of 3H-MCC950; type: binding; settings: displacement of 3H-MCC950 from human NLRP3
In short: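 Human NLRP3 (350 nM) preincubated 15 min at RT with compound (5% DMSO final) in HEPES pH 7.5 buffer with 100 μM ADP, then 125 nM 3H-MCC950 added for 60 min. Copper PVT SPA beads added; counts read 6 h later. Specific binding = signal minus no-protein wells, duplicates averaged; IC50 reported.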

T1 sequence (Q96P20 whole entry): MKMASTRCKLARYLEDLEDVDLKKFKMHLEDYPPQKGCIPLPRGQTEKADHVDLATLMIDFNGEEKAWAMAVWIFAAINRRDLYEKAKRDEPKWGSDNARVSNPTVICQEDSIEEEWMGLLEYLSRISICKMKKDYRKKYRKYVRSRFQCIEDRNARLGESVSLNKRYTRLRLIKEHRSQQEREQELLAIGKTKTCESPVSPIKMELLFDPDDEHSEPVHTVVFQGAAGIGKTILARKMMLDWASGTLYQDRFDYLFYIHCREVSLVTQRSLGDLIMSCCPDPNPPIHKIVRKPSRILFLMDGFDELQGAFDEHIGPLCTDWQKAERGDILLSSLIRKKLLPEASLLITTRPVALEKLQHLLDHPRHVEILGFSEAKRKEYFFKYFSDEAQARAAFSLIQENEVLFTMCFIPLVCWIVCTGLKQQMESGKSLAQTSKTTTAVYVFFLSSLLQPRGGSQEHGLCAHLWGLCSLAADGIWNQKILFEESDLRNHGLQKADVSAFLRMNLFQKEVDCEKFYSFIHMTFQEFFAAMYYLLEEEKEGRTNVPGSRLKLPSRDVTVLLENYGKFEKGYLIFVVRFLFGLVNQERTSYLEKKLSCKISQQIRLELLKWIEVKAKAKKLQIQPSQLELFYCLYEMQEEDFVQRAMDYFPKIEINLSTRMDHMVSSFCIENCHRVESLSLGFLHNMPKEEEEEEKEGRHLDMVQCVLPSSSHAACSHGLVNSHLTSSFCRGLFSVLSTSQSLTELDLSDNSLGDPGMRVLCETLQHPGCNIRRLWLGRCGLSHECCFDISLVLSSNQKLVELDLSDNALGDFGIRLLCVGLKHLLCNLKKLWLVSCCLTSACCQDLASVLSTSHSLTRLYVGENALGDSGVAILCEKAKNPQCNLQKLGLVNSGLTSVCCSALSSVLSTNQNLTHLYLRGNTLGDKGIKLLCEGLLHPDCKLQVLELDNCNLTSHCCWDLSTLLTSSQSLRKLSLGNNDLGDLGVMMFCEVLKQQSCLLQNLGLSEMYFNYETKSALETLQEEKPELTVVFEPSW

SMILES | IC50 (human NLRP3 [1]; Table B, activity class) | IC50 (human NLRP3 [1]; Table C) | IC50 (human NLRP3 [2]; Table B, activity class) | IC50 (human NLRP3 [2]; Table C) | IC50 (human NLRP3 [3]; Table B, activity class) | IC50 (human NLRP3 [3]; Table C)
C[C@@H]1C[C@@H](NC(=O)N(C)c2ccc(OC(F)F)cc2)[C@H]2CC[C@@H]1N2c1nnn[nH]1 (single isomer, unassigned) [42A*] | < 1000 nM | 290 nM | < 10 nM | 4.1 nM | < 1000 nM | 65 nM
C[C@@H]1C[C@@H](NC(=O)N(C)c2ccc(C(F)(F)F)c(F)c2)[C@H]2CC[C@@H]1N2c1nnn[nH]1 (single isomer, unassigned) [49A*] | 1000 to 2000 nM | – | 10 to 100 nM | – | < 1000 nM | –
C[C@@H]1C[C@@H](NC(=O)N(C)c2ccc(OC(F)(F)F)c(F)c2F)[C@H]2CC[C@@H]1N2c1nnn[nH]1 (single isomer, unassigned) [59A*] | 2000 to 3000 nM | – | 100 to 500 nM | – | < 1000 nM | –
C[C@@H]1C[C@@H](NC(=O)N(C)c2c(F)cc(OC(F)F)cc2F)[C@H]2CC[C@@H]1N2c1nnn[nH]1 (single isomer, unassigned) [61A*] | < 1000 nM | – | < 10 nM | – | < 1000 nM | –
C[C@@H]1C[C@@H](NC(=O)N(C)c2c(F)cc(OC(F)(F)F)cc2F)[C@H]2CC[C@@H]1N2c1nnn[nH]1 (single isomer, unassigned) [62A*] | < 1000 nM | – | 10 to 100 nM | – | < 1000 nM | –
